Data from patent US20230137956A1, “ALPHA SUBSTITUTED STAT INHIBITORS AND COMPOSITIONS THEREOF” (JANPIX LIMITED, priority 2020, published 2023).
Like-named read-outs stand apart in the source and are kept apart here.

Columns and labels:
glutathione (GSH) = experiment: Reactivity Profiling with Glutathione (GSH); format: in vitro ADME; conditions: cell culture medium (IMDM, 10% FBS) with 5 mM glutathione, 25 μM inhibitor, IMDM with 10% FBS, 0.5% DMSO, 25° C., HPLC, read-out: T1/2-GSH
Description: In some embodiments, metabolic stability of the compounds is evaluated according to their reactivity profiles with GSH.
3.5 μL of 5 mM stocking solution of the inhibitors in DMSO was added to 697.5 μL of Iscove's Modified Dulbecco's Medium (IMDM) supplemented with 10% FBS and antibiotic antimycotic solution, with 5 mM glutathione to afford a final concentration of 25 μM inhibitor with 0.5% DMSO. The solution was then immediately placed in the sample tray at 25° C. Sample was analyzed at pre-defined intervals, typically every 1.5 hours, for up to four injections, by HPLC, included at time zero, without further pre-treatment. For each inhibitor, its peak is integrated at different time points and compared to the time zero injection in order to obtain a percentage remaining. Half-life is calculated according to a first order reaction kinetic taking into account those time points for which remaining percentage of inhibitor is above 40%, using the formula: t½=Ln(2)/k, where k is the slope of the linear plot of Ln[Inhibitor] vs time, according to the formula: Ln[A]=Ln[A]0−kt, where [A] is the value resulting from the integration at each time point, [A]0 the value at time zero, and t the time. For each inhibitor, both replicates are averaged and the resulting t½ reported. Selective reactivity against GSH in particular is confirmed by incubation of the inhibitor in the same solution without the presence of GSH, and single analysis after a time longer than the latest time point analyzed for the samples with GSH.

MV4-11 cells = experiment: MV4-11 Cell Cytotoxicity Assay; format: cell-based, human; conditions: 72 h incubation, CellTiter-Blue, read-out: IC50-MV-4-11
Description: In some embodiments, the potency of the STAT5 inhibitors are evaluated by an in vitro assay such as MV4-11 Cell Cytotoxicity Assay. MV4-11 cells were grown in Iscove's Modified Dulbecco's Medium (IMDM) supplemented with 10% fetal bovine serum (FBS). 10,000 cells were plated per well in 96-well flat-bottom sterile culture plates with low-evaporation lids. After 24 h, inhibitors and a vehicle control (0.5% DMSO) were added and the cells were incubated for 72 h at 37° C. in 5% CO2. Inhibitors were examined in triplicate at a maximal concentration of 50 μM, followed by 1:2 dilutions in subsequent wells (25, 12.5, 6.25, 3.125, 1.5625, 0.78125, 0.390625, 0.195313 and 0.097656 μM). After 72 h, the wells were treated with CellTiter-Blue® (20 μL/well), and the plates were incubated using standard cell culture conditions for 1 hour. Fluorescence was measured at 560/590 nm.

half-life at 25 μM (glutathione (GSH))	Compound	IC50 (MV4-11 cells; Homo sapiens, MV4-11, 72 h)	further results
2.37 to 9.23 h	C[C@@H](C(=O)N(Cc1cc(C2CC2)cc(C2CC2)c1)c1ccc(C(=O)O)cc1OC1CC1)N(Cc1ccc(F)cc1Cl)S(=O)(=O)c1c(F)c(F)c(F)c(F)c1F [Compound 1006, (S)-4-(2-(N-(2-chloro-4-fluorobenzyl)-(2,3,4,5,6-pentafluorophenyl)sulfonamido)-N-(3,5-dicyclopropylbenzyl)propanamido)-3-cyclopropoxybenzoic acid]		
	CC(C)C[C@H](C(=O)N(Cc1cc(C2CC2)cc(C(C)(C)C)c1)c1ccc(C(=O)O)c(O)c1)N(Cc1ccc(Cl)cc1)S(=O)(=O)c1c(F)c(F)c(F)c(F)c1F [Compound 1005, (R)-4-(N-(3-(tert-butyl)-5-cyclopropylbenzyl)-2-(N-(4-chlorobenzyl)-(2,3,4,5,6-pentafluorophenyl)sulfonamido)-4-methylpentanamido)-2-hydroxybenzoic acid]		IC50 (MV4-11 cells): 5 to 10 µM
	CC(C)C[C@H](C(=O)N(Cc1cc(C2CC2)cc(C(C)(C)C)c1)c1ccc(C(=O)O)c(O)c1)N(Cc1ccc(Cl)cc1)S(=O)(=O)c1c(F)c(F)c(F)c(F)c1F [Compound 1001, (R)-4-(N-(3-(tert-butyl)-5-cyclopropylbenzyl)-2-(N-(4-chlorobenzyl)-(2,3,4,5,6-pentafluorophenyl)sulfonamido)-4-methylpentanamido)-2-hydroxybenzoic acid]		IC50 (MV4-11 cells): 1e-05 to 5 µM
	CC(C)[C@@H](C(=O)N(Cc1cc(C2CC2)cc(C(C)(C)C)c1)c1ccc(C(=O)O)c(O)c1)N(Cc1ccc(Cl)cc1)S(=O)(=O)c1c(F)c(F)c(F)c(F)c1F [Compound 1003, (S)-4-(N-(3-(tert-butyl)-5-cyclopropylbenzyl)-2-(N-(4-chlorobenzyl)-(2,3,4,5,6-pentafluorophenyl)sulfonamido)-3-methylbutanamido)-2-hydroxybenzoic acid]	1e-05 to 5 µM	
2.37 to 9.23 h	C[C@@H](C(=O)N(Cc1cc(C2CC2)cc(N2CCCC2)c1)c1ccc(C(=O)O)cc1C1CC1)N(Cc1ccc(F)cc1Cl)S(=O)(=O)c1c(F)c(F)c(F)c(F)c1F [Compound 1008, (S)-4-(2-(N-(2-chloro-4-fluorobenzyl)-(2,3,4,5,6-pentafluorophenyl)sulfonamido)-N-(3-cyclopropyl-5-(pyrrolidin-1-yl)benzyl)propan-amido)-3-cyclopropylbenzoic acid]		
9.23 to 1670 h	C[C@H](C(=O)N(Cc1cc(C2CC2)cc(N2CCCC2)c1)c1ccc(C(=O)O)cc1C1CC1)N(Cc1ccc(F)cc1Cl)S(=O)(=O)c1c(F)c(F)c(F)c(F)c1F [Compound 1009, (R)-4-(2-(N-(2-chloro-4-fluorobenzyl)-(2,3,4,5,6-pentafluorophenyl)sulfonamido)-N-(3-cyclopropyl-5-(pyrrolidin-l-yl)benzyl)propan-amido)-3-cyclopropylbenzoic acid]		
	C[C@@H](C(=O)N(Cc1cc(C2CC2)cc(C(C)(C)C)c1)c1ccc(C(=O)O)c(O)c1)N(Cc1ccc(Cl)cc1)S(=O)(=O)c1c(F)c(F)c(F)c(F)c1F [Compound 1002, (S)-4-(N-(3-(tert-butyl)-5-cyclopropylbenzyl)-2-(N-(4-chlorobenzyl)-(2,3,4,5,6-pentafluorophenyl)sulfonamido)propanamido)-2-hydroxybenzoic acid]	1e-05 to 5 µM	
	C[C@H](C(=O)N(Cc1cc(C2CC2)cc(C(C)(C)C)c1)c1ccc(C(=O)O)c(O)c1)N(Cc1ccc(Cl)cc1)S(=O)(=O)c1c(F)c(F)c(F)c(F)c1F [Compound 1004, (R)-4-(N-(3-(tert-butyl)-5-cyclopropylbenzyl)-2-(N-(4-chlorobenzyl)-(2,3,4,5,6-pentafluorophenyl)sulfonamido)propanamido)-2-hydroxybenzoic acid]	5 to 10 µM	
